Results as given in patent US4578489A (priority 1982, dated 1986).
Read-outs that look alike come from different tables or passages of the source.

Experiments:
[1] = tested on: Cladosporium cladosporioides; test: Minimum inhibitory concentration against fungi, agar incorporation test, strain O; assay type: cell-based; conditions: malt extract/agar
Method: (§1) The invention is carried out using the known agar incorporation test in the following fungi:
(O) Cladosporium cladosporioides
(§2) in a malt extract/agar (Merck). Inhibition is effected by adding sufficient of each of the various compounds to give final concentrations in the agar of 2, 5, 10, 50 and 100 mg/liter. The concentrations (mg/liters) required to inhibit the growth of the fungi (starting from traces of fungi added dropwise) are illustrated in Table 3.

[2] = tested on: Alternaria alternata; test: Minimum inhibitory concentration against fungi, agar incorporation test, strain N; assay type: cell-based; conditions: malt extract/agar
Method: as §1, §2

[3] = tested on: Aspergillus niger; test: Minimum inhibitory concentration against fungi, agar incorporation test, strain K; assay type: cell-based; conditions: malt extract/agar
Method: as §1, §2

[4] = tested on: Aureobasidium pullulans; test: Minimum inhibitory concentration against fungi, agar incorporation test, strain R; assay type: cell-based; conditions: malt extract/agar
Method: as §1
(R) Aureobasidium pullulans
as §2

[5] = tested on: Penicillium funiculosum; test: Minimum inhibitory concentration against fungi, agar incorporation test, strain M; assay type: cell-based; conditions: malt extract/agar
Method: as §1
(M) Penicillium funiculosum
as §2

[6] = tested on: Chlorella vulgaris; test: Action against algae: Chlorella vulgaris; assay type: cell-based; set-up: key: --: no growth on the agar, 3 ppm have destroyed the algae in 6 hours; conditions: 3 mg/liter; for Growth on the agar (algae-destroying action): 6 hours exposure, 14 days incubation; for Growth in the medium (growth inhibition): 14 days
Method: Cultures of Chlorella vulgaris which had been grown for 14 days in algae nutrient media are diluted in the ratio 1/200 in the algae nutrient medium. Each of the compounds listed in Table 1 is then added in such an amount as to give a final concentration of 3 mg/liter. After incubating for 6 hours, 10 μl of each culture are withdrawn and added dropwise to algae/agar in order to determine the destructive action. After the cultures have incubated for 14 days under illumination (14 hours of light and 10 hours of darkness, alternately), the growth in the algae medium (determination of growth inhibition) and on the algae/agar (determination of algae-destroying action) is assessed visually.

[7] = tested on: Alcaligenes denitrificans; test: Minimum inhibitory concentration against bacteria, strain E; assay type: cell-based; conditions: 24 hours at 30° C.; tested at 100 and 300 mg/liter
Method: (§3) Overnight cultures, grown in Caso peptone bouillon (Merck) of the various strains of bacteria: (A) Proteus vulgaris, (B) Pseudomonas aeruginosa, (C) Enterobacter aerogenes, (D) Serratia marcencens, (E) Alcaligenes denitrificans and (F) Bacillus subtilis are each diluted in a ratio of 1/1000 in saline solution. Sufficient of the suspensions is put into Caso peptone bouillon to dilute the bacteria again in the ratio of 1/1000. Each of the compounds listed in Table 1 is then added in amounts of 100 and 300 mg/liter. After being incubated for 24 hours at 30° C. in a shaking waterbath, the turbidity of the samples is evaluated.

[8] = tested on: Artemia salina; test: Action against Artemia salina nauplii; assay type: in vivo; set-up: key: 0: no change; 1: slight change; 1-2: animals are attacked; 2: animals are strongly attacked; 2-3: animals are nearly all dead; 3: animals are all dead
Method: The eggs, which are available commercially, are caused to hatch by vigorous aeration. When 2-3 days old, the nauplii are exposed to the products at various concentrations (concentrations tested: 2.5; 1; 0.5 and 0.25 mg/liter) in synthetic seawater, and are observed over a prolonged period of time.

[9] = tested on: Chaetomium globosum; test: Minimum inhibitory concentration against fungi, agar incorporation test, strain S; assay type: cell-based; conditions: malt extract/agar
Method: as §1, §2

[10] = tested on: Enteromorpha intestinalis; test: Action against Enteromorpha intestinalis: destruction (minimum killing concentration); assay type: in vivo; conditions: 4 hours in seawater, then 6-8 weeks in fresh seawater
Method: (§4) The action against the green alga Enteromorpha, which is the most important in seawter fouling, is investigated in sterile-filtered seawater containing an Erd-Schreiber solution. This solution is composed of a nutrient extract, phosphate and nitrate. The incubation of Enteromorpha intestinalis is carried out in a light thermostat at 18° C. under an alternation of 14 hours of light and 10 hours of darkness.
The algae which have been cultured in this way are exposed to the products under investigation for a short time (4 hours) in seawater. The minimum killing concentration (MKC) is determined by taking the algae out of the seawater containing a specific quantity of algicide, after the treatment time in the latter, washing the algae and investigating growth or mortality after incubation in fresh seawater for a further period of 6-8 weeks.
The minimum killing concentration (MKC) indicates the amount of substance required to cause such damage to the algae within a specific time that they can no longer recover in fresh seawater and die out.

[11] = tested on: Enteromorpha intestinalis; test: Action against Enteromorpha intestinalis: inhibitory concentration (MIC); assay type: in vivo; conditions: seawater containing biocide for entire test; concentration tested 0.5 mg/liter
Method: as §4
For determining the inhibitory concentration (MIC), the algae are kept in seawater containing biocide for the entire duration of the test (concentration tested: 0.5 mg/liter).

[12] = tested on: Pseudomonas aeruginosa; test: Minimum inhibitory concentration against bacteria, strain B; assay type: cell-based; conditions: 24 hours at 30° C.; tested at 100 and 300 mg/liter
Method: as §3

[13] = tested on: Aspergillus phoenicis; test: Minimum inhibitory concentration against fungi, agar incorporation test, strain L; assay type: cell-based; conditions: malt extract/agar
Method: as §1
(L) Aspergillus phoenicis
as §2

[14] = tested on: Endomyces geotrichum; test: Minimum inhibitory concentration against fungi, agar incorporation test, strain Q; assay type: cell-based; conditions: malt extract/agar
Method: as §1, §2

[15] = tested on: Enterobacter aerogenes; test: Minimum inhibitory concentration against bacteria, strain C; assay type: cell-based; conditions: 24 hours at 30° C.; tested at 100 and 300 mg/liter
Method: as §3

[16] = tested on: Bacillus subtilis; test: Minimum inhibitory concentration against bacteria, strain F; assay type: cell-based; conditions: 24 hours at 30° C.; tested at 100 and 300 mg/liter
Method: as §3

[17] = tested on: Candida albicans; test: Minimum inhibitory concentration against fungi, agar incorporation test, strain P; assay type: cell-based; conditions: malt extract/agar
Method: as §1, §2

[18] = tested on: Proteus vulgaris; test: Minimum inhibitory concentration against bacteria, strain A; assay type: cell-based; conditions: 24 hours at 30° C.; tested at 100 and 300 mg/liter
Method: as §3

[19] = tested on: Serratia marcencens; test: Minimum inhibitory concentration against bacteria, strain D; assay type: cell-based; conditions: 24 hours at 30° C.; tested at 100 and 300 mg/liter
Method: as §3

[20] = tested on: mixed culture of bacteria; assay type: cell-based; set-up: key: +: growth, no destruction; (+): growth less than that of control (>10 colonies), slight destruction; (-): slight growth (1-10 colonies); -: no growth, destruction
[21] = 5 mg/l, culture diluted 1/1000 in Tyrode
[22] = 5 mg/l, culture diluted 1/10000 in Tyrode
[23] = 10 mg/l, culture diluted 1/1000 in Tyrode
[24] = 10 mg/l, culture diluted 1/10000 in Tyrode
[25] = 30 mg/l, culture diluted 1/1000 in Tyrode
[26] = 30 mg/l, culture diluted 1/10000 in Tyrode
[27] = 60 mg/l, culture diluted 1/1000 in Tyrode
[28] = 60 mg/l, culture diluted 1/10000 in Tyrode
[29] = 100 mg/l, culture diluted 1/1000 in Tyrode
[30] = 100 mg/l, culture diluted 1/10000 in Tyrode

In the case of CCCCCCCCCCCCCCCC[n+]1ccccc1.CCC[CH2][Sn-]([Cl])([Cl])([CH2]CCC)[CH2]CCC [Example 7, Pyridine-Nhexadecyl / Tributyldichloro], the “MIC against fungi, strain O” value [1] is reported as 2 µg/mL, the “MIC against fungi, strain N” value [2] is reported as 5 µg/mL and the “MIC against fungi, strain K” value [3] is reported as 2 µg/mL. The “MIC against fungi, strain R” value [4] was 2 µg/mL, the “MIC against fungi, strain M” value [5] was 10 µg/mL and the “Growth on the agar (algae-destroying action)” value [6] was “--”. The “Growth in the medium (growth inhibition)” value [6] was “--”, the “MIC against bacteria, strain E” value [7] was 100 µg/mL and the “Action against Artemia salina” value ([8]; 0,5 mg/l, 6 hours) was 1-2. The “Action against Artemia salina” value ([8]; 0,5 mg/l, 24 hours) was 2, the “Action against Artemia salina” value ([8]; 0,5 mg/l, 48 hours) was 3 and the “Action against Artemia salina” value ([8]; 0,25 mg/l, 6 hours) was 0-1. For the same molecule, the “Action against Artemia salina” value ([8]; 0,25 mg/l, 24 hours) was 2, the “Action against Artemia salina” value ([8]; 0,25 mg/l, 48 hours) was 2-3 and the “Action against Artemia salina” value ([8]; 1 mg/l, 6 hours) was 2. The “Action against Artemia salina” value ([8]; 1 mg/l, 24 hours) was 3, the “Action against Artemia salina” value ([8]; 1 mg/l, 48 hours) was 3 and the “Action against Artemia salina” value ([8]; 2,5 mg/l, 6 hours) was 2-3. For the same molecule, the “Action against Artemia salina” value ([8]; 2,5 mg/l, 24 hours) was 3, the “Action against Artemia salina” value ([8]; 2,5 mg/l, 48 hours) was 3 and the “MIC against fungi, strain S” value [9] was 2 µg/mL. For the same molecule, the “Destruction, 5 mg/liter” value [10] was “yes”, the MIC [11] was 0.5 µg/mL and the “MIC against bacteria, strain B” value [12] was 100 µg/mL. For the same molecule, the “MIC against fungi, strain L” value [13] was 10 µg/mL, the “MIC against fungi, strain Q” value [14] was 5 µg/mL and the “MIC against bacteria, strain C” value [15] was 100 µg/mL. The “MIC against bacteria, strain F” value [16] was 100 µg/mL, the “MIC against fungi, strain P” value [17] was 5 µg/mL and the “MIC against bacteria, strain A” value [18] was 100 µg/mL. For the same molecule, the “MIC against bacteria, strain D” value [19] was 100 µg/mL, the “Growth (destruction of a mixed culture of bacteria)” value [20, 21] was “+” and the “Growth (destruction of a mixed culture of bacteria)” value [20, 22] was “+”. The “Growth (destruction of a mixed culture of bacteria)” value [20, 23] was “+”, the “Growth (destruction of a mixed culture of bacteria)” value [20, 24] was “(+) (growth less than that of control (>10 colonies), slight destruction)” and the “Growth (destruction of a mixed culture of bacteria)” value [20, 25] was “(+) (growth less than that of control (>10 colonies), slight destruction)”. For the same molecule, the “Growth (destruction of a mixed culture of bacteria)” value [20, 26] was “(-) (slight growth (1-10 colonies))”, the “Growth (destruction of a mixed culture of bacteria)” value [20, 27] was “-” and the “Growth (destruction of a mixed culture of bacteria)” value [20, 28] was “-”. For the same molecule, the “Growth (destruction of a mixed culture of bacteria)” value [20, 29] was “-” and the “Growth (destruction of a mixed culture of bacteria)” value [20, 30] was “-”.

With CCCCCCCCCCCC[N+](CCO)(CCO)Cc1ccccc1.CCC[CH2][Sn-]([Cl])([Cl])([CH2]CCC)[CH2]CCC [Example 5, Dihydroxyethyl-benzyl-lauryl / Tributyldichloro] the “MIC against fungi, strain O” value [1] was 2 µg/mL, the “MIC against fungi, strain N” value [2] was 5 µg/mL and the “MIC against fungi, strain K” value [3] was 5 µg/mL. The “MIC against fungi, strain R” value [4] was 2 µg/mL, the “MIC against fungi, strain M” value [5] was 5 µg/mL and the “Growth on the agar (algae-destroying action)” value [6] was “--”. The “Growth in the medium (growth inhibition)” value [6] was “--”, the “MIC against bacteria, strain E” value [7] was 100 µg/mL and the “Action against Artemia salina” value ([8]; 0,5 mg/l, 6 hours) was 1-2. The “Action against Artemia salina” value ([8]; 0,5 mg/l, 24 hours) was 2-3, the “Action against Artemia salina” value ([8]; 0,5 mg/l, 48 hours) was 3 and the “Action against Artemia salina” value ([8]; 0,25 mg/l, 6 hours) was 0-1. For the same molecule, the “Action against Artemia salina” value ([8]; 0,25 mg/l, 24 hours) was 2, the “Action against Artemia salina” value ([8]; 0,25 mg/l, 48 hours) was 2-3 and the “Action against Artemia salina” value ([8]; 1 mg/l, 6 hours) was 2. The “Action against Artemia salina” value ([8]; 1 mg/l, 24 hours) was 3, the “Action against Artemia salina” value ([8]; 1 mg/l, 48 hours) was 3 and the “Action against Artemia salina” value ([8]; 2,5 mg/l, 6 hours) was 2-3. The “Action against Artemia salina” value ([8]; 2,5 mg/l, 24 hours) was 3, the “Action against Artemia salina” value ([8]; 2,5 mg/l, 48 hours) was 3 and the “MIC against fungi, strain S” value [9] was 2 µg/mL. For the same molecule, the “Destruction, 5 mg/liter” value [10] was “yes”, the MIC [11] was 0.5 µg/mL and the “MIC against bacteria, strain B” value [12] was 100 µg/mL. The “MIC against fungi, strain L” value [13] was 5 µg/mL, the “MIC against fungi, strain Q” value [14] was 5 µg/mL and the “MIC against bacteria, strain C” value [15] was 100 µg/mL. The “MIC against bacteria, strain F” value [16] was 100 µg/mL, the “MIC against fungi, strain P” value [17] was 5 µg/mL and the “MIC against bacteria, strain A” value [18] was 100 µg/mL. The “MIC against bacteria, strain D” value [19] was 100 µg/mL, the “Growth (destruction of a mixed culture of bacteria)” value [20, 21] was “+” and the “Growth (destruction of a mixed culture of bacteria)” value [20, 22] was “+”. For the same molecule, the “Growth (destruction of a mixed culture of bacteria)” value [20, 23] was “+”, the “Growth (destruction of a mixed culture of bacteria)” value [20, 24] was “+” and the “Growth (destruction of a mixed culture of bacteria)” value [20, 25] was “+”. For the same molecule, the “Growth (destruction of a mixed culture of bacteria)” value [20, 26] was “+”, the “Growth (destruction of a mixed culture of bacteria)” value [20, 27] was “+” and the “Growth (destruction of a mixed culture of bacteria)” value [20, 28] was “+”. For the same molecule, the “Growth (destruction of a mixed culture of bacteria)” value [20, 29] was “+” and the “Growth (destruction of a mixed culture of bacteria)” value [20, 30] was “(+) (growth less than that of control (>10 colonies), slight destruction)”.
